Legend:
B16F10 melanoma cells = conditions: wild type mice with PVA sponges; HDC 1,500 μg/mouse i.p. thrice weekly for 2 weeks; foci counted 3 weeks after B16F10 injection; p<0.0001, n=10
Protocol: (§1) To mimic the wounding inflammation associated with surgery, sterile polyvinyl alcohol (PVA) sponges (1 cm^2 with a thickness of 2 mm) were implanted subcutaneously to wild type C57BL/6 and Nox2−/− mice (mouse strain B6.129S6-Cybbtm1Din, obtained from the Jackson Laboratory) aiming to induce tissue inflammation.
(§2) Mice received intraperitoneal injections of the NOX2-inhibitor HDC (1,500 μg/mouse) thrice weekly for 2 weeks starting two days before implantation of sponges.

[1] = test system: intracellular reactive oxygen species in CD11b+LyC6+ inflammatory monocytes; conditions: sponge-bearing wild type mice; HDC 1,500 μg/mouse i.p. thrice weekly; DCFDA, one week after implantation
Protocol: The values were normalized against those of unwounded control mice on each collection day.
as §1, §2
One week after implantation of sponges, before injection of melanoma cells, peripheral blood was drawn from vena saphena of wild type and Nox2−/− mice. Blood cells were stained for CD11b and Ly6C using fluorochrome-conjugated antibodies and with DCFDA to detect content of intracellular reactive oxygen species. The content of CD11b+LyC6+inflammatory monocytes in blood and their levels of intracellular radicals was determined using flow cytometry.

## Cl.Cl.NCCc1c[nH]cn1 [HDC, histamine dihydrochloride]
B16F10 melanoma cells
  formation of metastases (metastatic foci in lungs) during surgical/wounding-induced inflammation: significantly reduced
[1]
  ROS levels in blood inflammatory monocytes: trend towards reduced ROS levels
